One assay has as its target Beta-lactamase TEM (Escherichia coli, UniProt P62593). Kind of assay: In vitro inhibitory activity against Class A (TEM-1) beta-Lactamases.
Another assay concerns the target Beta-lactamase (Escherichia coli K-12, UniProt P00811).
In assay [1] the target is Metallo-beta-lactamase type 2 (Bacteroides fragilis, UniProt P25910). Kind of assay: In vitro inhibitory activity against Class B (CCRA) beta-Lactamases.
The target of the next assay is IMI-1 (Enterobacter cloacae, UniProt Q46991). Kind of assay: In vitro inhibitory activity against Class A (Imi-1) beta-Lactamases.
IMI-1, sequence (Q46991 whole entry): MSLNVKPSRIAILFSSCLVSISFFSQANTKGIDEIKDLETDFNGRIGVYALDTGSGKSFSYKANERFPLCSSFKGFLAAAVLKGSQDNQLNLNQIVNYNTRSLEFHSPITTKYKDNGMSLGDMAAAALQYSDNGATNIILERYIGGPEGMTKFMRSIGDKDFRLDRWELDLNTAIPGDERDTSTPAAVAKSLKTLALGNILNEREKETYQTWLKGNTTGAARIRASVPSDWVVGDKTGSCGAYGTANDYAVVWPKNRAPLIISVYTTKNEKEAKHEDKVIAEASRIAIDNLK

This is an account of results in ChEMBL document CHEMBL1149192, “Mechanism of inactivation of beta-lactamases by novel 6-methylidene penems elucidated using electrospray ionization mass spectrometry” (J Med Chem, 2004).

One may read the IC50 as the concentration at which inhibition is half-maximal. Low values mean greater potency in that assay, high ones weaker potency in that assay.

Beta-lactamase TEM, sequence (P62593 whole entry): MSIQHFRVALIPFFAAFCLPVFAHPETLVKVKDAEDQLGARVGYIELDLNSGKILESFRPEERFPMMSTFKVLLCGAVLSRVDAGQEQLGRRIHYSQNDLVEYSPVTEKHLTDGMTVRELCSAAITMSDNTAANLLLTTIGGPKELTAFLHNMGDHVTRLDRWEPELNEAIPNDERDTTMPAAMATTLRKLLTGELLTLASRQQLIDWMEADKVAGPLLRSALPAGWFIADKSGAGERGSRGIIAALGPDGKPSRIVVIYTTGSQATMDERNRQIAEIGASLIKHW
Beta-lactamase, sequence (P00811 whole entry): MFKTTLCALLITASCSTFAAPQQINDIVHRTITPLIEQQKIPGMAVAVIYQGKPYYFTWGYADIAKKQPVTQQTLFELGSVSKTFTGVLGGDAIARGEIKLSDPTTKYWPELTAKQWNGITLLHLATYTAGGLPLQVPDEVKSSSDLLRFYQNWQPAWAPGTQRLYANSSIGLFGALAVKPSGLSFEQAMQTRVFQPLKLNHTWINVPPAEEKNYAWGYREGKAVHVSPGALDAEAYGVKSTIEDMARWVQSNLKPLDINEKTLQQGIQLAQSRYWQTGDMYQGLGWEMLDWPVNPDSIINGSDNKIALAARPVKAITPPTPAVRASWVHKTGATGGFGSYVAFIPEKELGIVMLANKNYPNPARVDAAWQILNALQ
Metallo-beta-lactamase type 2, sequence (P25910 whole entry): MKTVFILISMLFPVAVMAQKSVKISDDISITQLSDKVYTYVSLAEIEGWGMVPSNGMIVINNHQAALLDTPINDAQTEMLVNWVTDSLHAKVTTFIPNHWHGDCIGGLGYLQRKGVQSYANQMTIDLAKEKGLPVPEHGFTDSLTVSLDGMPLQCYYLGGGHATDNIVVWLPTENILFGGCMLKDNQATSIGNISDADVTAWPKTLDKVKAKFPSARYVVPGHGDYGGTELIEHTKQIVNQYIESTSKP

Take `O=C(O)C1=CS[C@@H]2/C(=C\c3cn4c5c(sc4n3)CCC5)C(=O)N12`: the IC50 was found to be 1 nM on Beta-lactamase TEM and 2 nM at Beta-lactamase.
Turning to `O=C(O)C1=CS[C@@H]2/C(=C\c3cc4n(n3)CCC4)C(=O)N12`, the IC50 at Beta-lactamase TEM amounted to 1 nM; against Beta-lactamase it was 2 nM.
For `O=C(O)C1=CS[C@@H]2/C(=C\c3cnc4n3CCOC4)C(=O)N12`, the IC50 is 66 nM in assay [1], 8 nM at IMI-1, 0.4 nM against Beta-lactamase TEM and 5 nM at Beta-lactamase.
For `O=C(O)C1=CS[C@@H]2/C(=C\c3cnc4n3CCNC4)C(=O)N12` the same measures were 320 nM, 28 nM, 5 nM and 6 nM.
